IC50 data for two molecules are collected here from ChEMBL document CHEMBL1134353, “X-Ray structure of citrate bound to Src SH2 leads to a high-affinity, bone-targeted Src SH2 inhibitor” (J Med Chem, 2001).

Molecules are shown by their SMILES.

For test [1], the target named is Proto-oncogene tyrosine-protein kinase Src (Homo sapiens, UniProt P12931). In words: Inhibition of binding to Src SH2 domain.
The next test is filed under the species Oryctolagus cuniculus. The test is described as follows: Ability to inhibit osteoclast mediated resorption of dentine in rabbit. It is filed as functional.

Proto-oncogene tyrosine-protein kinase Src, sequence (P12931 2-536 limits assumed): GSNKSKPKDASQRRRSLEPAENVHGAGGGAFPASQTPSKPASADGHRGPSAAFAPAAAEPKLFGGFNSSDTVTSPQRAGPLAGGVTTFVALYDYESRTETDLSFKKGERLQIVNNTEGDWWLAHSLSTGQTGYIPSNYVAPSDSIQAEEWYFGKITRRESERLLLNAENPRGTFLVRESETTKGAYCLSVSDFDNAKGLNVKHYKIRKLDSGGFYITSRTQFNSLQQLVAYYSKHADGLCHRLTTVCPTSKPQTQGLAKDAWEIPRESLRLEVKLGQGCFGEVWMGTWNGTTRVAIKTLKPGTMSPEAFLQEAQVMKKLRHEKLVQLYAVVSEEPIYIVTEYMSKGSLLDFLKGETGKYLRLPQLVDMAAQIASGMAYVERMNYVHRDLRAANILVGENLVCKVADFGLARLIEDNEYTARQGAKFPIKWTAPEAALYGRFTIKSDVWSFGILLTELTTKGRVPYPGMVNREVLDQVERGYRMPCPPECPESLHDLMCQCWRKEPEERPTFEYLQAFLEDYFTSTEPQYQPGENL

As for `CC(=O)N[C@@H](Cc1ccc(CP(=O)(O)O)cc1)C(=O)N[C@@H](C)c1ccc(OCC2CCCCC2)c(C(N)=O)c1`, in test [1], the IC50 turned out to be 7.9 µM. In the case of `CC(=O)N[C@@H](Cc1ccc(C(P(=O)(O)O)P(=O)(O)O)cc1)C(=O)N[C@@H](C)c1ccc(OCC2CCCCC2)c(C(N)=O)c1`, the IC50 worked out at 2 µM in the test filed under Oryctolagus cuniculus and 0.35 µM in test [1].

As usually defined, the IC50 is the concentration that gives 50% inhibition. Read a low IC50 as inhibition by little substance.
